Read-outs that look alike come from different tables or passages of the source.
What was measured:
healthy volunteers = experiment: Hand immersion test at 49° C. during MAD part; format: in vivo, human; conditions: water at 49° C.
Protocol: Safety assessments: Safety assessments consisted of collecting all adverse events (AEs), serious adverse events (SAEs), including systemic and ocular adverse events, along with their severity and relationship to study drug. Systemic safety assessments included regular monitoring of hematology, blood chemistry and urinalysis performed at study center and regular assessments of physical examination, vital signs (systolic and diastolic blood pressure, pulse rate, and body temperature), ECG, pregnancy and assessments of fertility and hand immersion test at 49° C. during MAD part. Ocular safety assessments included early treatment diabetic retinopathy study (ETDRS) visual acuity, intraocular pressure, slit-lamp biomicroscopy, corneal staining and dilated fundus exam.
For the hand immersion test, all subjects in the treatment cohorts withdrew their hand from water at 49° C. at a time interval between 0 to ≤50 secs.

[1] = PRK study: plasma pharmacokinetics of compound I; format: in vivo, human; conditions: for Tmax: read-out: Tmax, Min, Max
Protocol: Pharmacokinetic (PK) samples were collected at the time points defined in the visit schedule supra, with PK blood collection windows shown in Table 9.
All blood samples (3 mL) were taken from the arm by either direct venipuncture or an indwelling catheter inserted in a forearm vein. After each tube of blood was drawn, it was immediately inverted gently 8-10 times to ensure the mixing of tube contents with anticoagulant (3 mL K2 EDTA). Prolonged sample contact with the rubber stopper was avoided and the tubes were placed upright in a test tube rack surrounded by wet ice until centrifugation.
Within 30 minutes, the sample was centrifuged at about 5° C. for 10 minutes at approximately 2000 G (or the sample was placed on ice and centrifuged at room temperature). Immediately after centrifugation, the whole supernatant (approx. 1.5 mL) was transferred in the first 1.8 mL NUNC 2D barcoded cryovial. After mixing the plasma thoroughly, half of the plasma was transferred from the first cryovial to the second cryovial and the caps were secured. Appropriate PK cryolabels were attached to each cryovial and the labels were secured with clear tape. The cryovials were frozen immediately over dry ice then, kept frozen at ≤−20° C. until shipment to the central lab. The vials were shipped in biweekly batches.
Compound I was quantified in plasma using a validated LC-MS/MS method; the lower limit of quantification (LLOQ) was 0.05 ng/mL. Concentrations were expressed in ng per mL units. When feasible, bandage contact lenses (BCL) exposed to study drug were collected and analyzed for residual drug exposure after treatment (LLOQ: 5.00 ng/mL in 0.55 mL of extraction fluid, or 2.75 ng/BCL). Concentrations below the LLOQ were reported as “zero” and missing data were labeled as such.
The following PK parameters were determined as relevant using the actual recorded sampling times and non-compartmental method with Phoenix™ WinNonlin® (Version 6.4): Cmax, Tmax, AUClast (calculated), Clast and Tlast from the plasma concentration-time data. Pre-dose concentrations were determined by inspection at nominal 0, 24 and 72 hours. The linear trapezoidal rule was used for AUClast calculation. No PK parameters were calculated from the bandage contact lenses compound I concentration data.

[2] = First in human study plasma pharmacokinetics; format: in vivo
Protocol: This example describes a first-in-human study of compound I conducted in healthy volunteers. A total of 54 subjects were administered to study medication. Part 1 of the first in human study administered single ascending doses of 0.15%, 1.5%, 2.5% w/v (1 drop) of compound I in an eye drop.
Part 2 tested multiple ascending doses (MAD) of compound I, administering (i) 1 drop of 0.15%, 1.5%, 2.5%, 4 times daily (every 6 hours) for 7 days or (ii) 1 drop of 2.5%, 8 times daily (every 3 hours) for 7 days (supra-therapeutic dose) as eye drops.
Accumulation of compound I at steady-state was minor (˜1.7-fold) following administration of 0.15%, 1.5% or 2.5% suspension 4 times daily and also minor (˜1.3-fold) following 2.5% 8 times daily for 7 days.

cornea = experiment: Esthesiometry assessment (Part 3): corneal sensitivity, anesthetic effect; format: in vivo, human; conditions: for Anesthetic effect on the cornea (esthesiometry): single eye drop: tetracaine 0.5%, diclofenac 0.1%
Source text: Part 3 was an esthesiometry assessment to evaluate the anesthetic properties of compound I. Part 3 of the study had four arms, with compound I, vehicle, tetracaine (0.5% ophthalmic solution, used as a positive control) and diclofenac sodium (0.1% ophthalmic solution, used as the active NSAID comparator). Ocular anesthetic was selected because of its established anesthetic effect; however it is not the standard of care due to its negative effect on wound healing. NSAID is the current standard of care for corneal pain after PRK with minimal anesthetic but significant pain control properties. Vehicle eye drops were used as a negative control to enable better determination of the potential anesthetic effect. Twelve healthy subjects, who met the eligibility criteria, were randomized to receive a single eye drop of 4 study treatments, each during 1 of 4 different study days (Days 1, 4, 7 and 10). Each subject was randomized to receive the study treatment according to one of the following four sequences: • Sequence 1: Anesthetic, NSAID, compound I 2.5%, Vehicle • Sequence 2: NSAID, Vehicle, Anesthetic, compound I 2.5% • Sequence 3: Vehicle, compound I 2.5%, NSAID, Anesthetic • Sequence 4: compound I 2.5%, Anesthetic, Vehicle, NSAID
Inclusion Criteria: • Written informed consent was obtained before any assessment was performed. • Healthy male and female subjects aged 18 to 50 years (inclusive), and in good health as determined by past medical history, physical examination, vital signs, ECG, and laboratory tests at Screening. • At Screening, and Baseline, vital signs (systolic and diastolic blood pressure (BP) and pulse rate) were assessed in the sitting position after the subject had rested for at least 3 minutes and again after 3 minutes in the standing position. […] BMI=Body weight (kg)/[Height (m)]^2 • Subjects who were able to communicate well with the Investigator, to understand and comply with the requirements of the study. • For Part 3, subjects Baseline levels of eye sensitivity were to be in the range of 50 to 60 mm (inclusive) as measured by the Cochet-Bonnet esthesiometer.
The first-in-human study further evaluated potential anesthetic effect of topical ocular 2.5% compound I by esthesiometry testing, i.e. measurement of the filament length (cm) when the threshold of cornea touch is perceived.

[3] = across 4 days of repeated QID dosing
[4] = plasma, Day 1 (first dose), 2.5% topical ocular
[5] = plasma, Day 1 (first dose), 2.5% topical ocular, N 34
[6] = plasma, Day 4 (13th dose), 2.5% four times daily

CC(C)c1nc2cc(O)ccc2c(=O)n1-c1ccc(C#N)cc1 [Compound I, 4-(7-hydroxy-2-isopropyl-4-oxo-4H-quinazolin-3-yl)-benzonitrile]
Change in hand immersion time, compound I vs vehicle (healthy volunteers; MAD part): no meaningful change in immersion time | Temperature sensitivity of the subjects (healthy volunteers; MAD part): does not alter temperature sensitivity | Longest hand immersion time of any subject (healthy volunteers; all subjects in the treatment cohorts): ≤ 22 s | Mean AUClast increase over the 4 days (Day 4 vs Day 1) ([1]; 2.5% 4 times daily): 6.9 fold | Mean Cmax after 13th dose on Day 4 relative to first dose on Day 1 ([1]; 2.5% 4 times daily): 5.3 fold | AUClast, range [1, 3]: 0.261 to 14.5 ng·h/mL | Observed Cmax, range [1, 3]: 0.195 to 7.56 ng/mL | Median plasma Tmax ([1]; after either single (first dose) or repeated 4 times daily topical ocular administration): approximately 0.5 hours | Cmax ([1]; human, plasma, topical, 2.5 % (four times daily), across 4 days of repeated QID dosing, read-out: Observed Cmax, range): 0.195 to 7.56 ng/mL | Tmax ([1]; human, topical or ocular, plasma, Day 1 (first dose), 2.5% topical ocular): 10 to 120 min | Tmax ([1]; human, topical, plasma, Day 4 (13th dose), 2.5% four times daily): 0 to 125 min | AUClast, Median [1, 4]: 0.569 ng·h/mL | Cmax, Median [1, 4]: 0.375 ng/mL | Tmax, Median [1, 4]: 27.5 min | AUClast, Mean (SD) [1, 5]: 0.638 ng·h/mL | Cmax, Mean (SD) [1, 5]: 0.454 ng/mL | AUClast, Median [1, 6]: 3.42 ng·h/mL | Cmax, Median [1, 6]: 2.07 ng/mL | Tmax, Median [1, 6]: 28 min | AUClast, Mean (SD) ([1]; plasma, Day 4 (13th dose), 2.5% four times daily, N 31): 4.38 ng·h/mL | Cmax, Mean (SD) ([1]; plasma, Day 4 (13th dose), 2.5% four times daily, N 33): 2.40 ng/mL | Trough mean plasma concentration (end of 6-hour dose interval) ([1]; prior to the 5th dose on Day 2 (24 hr post 1st dose)): 1.25 ng/mL | Trough mean plasma concentration (end of 6-hour dose interval) ([1]; prior to the 13th dose on Day 4 (72 hr post 1st dose)): 1.99 ng/mL | Accumulation at steady-state ([2]; 0.15%, 1.5% or 2.5% suspension 4 times daily): ~1.7 fold | Accumulation at steady-state ([2]; 2.5%, 8 times daily for 7 days): ~1.3 fold | Increase in systemic exposure with dose ([2]; dose from 0.15% to 2.5%): less than dose-proportional increase | Absorption into systemic circulation (plasma PK profile) ([2]; single and multiple topical ocular suspension doses 0.15%, 1.5%, 2.5%): rapid absorption | Corneal sensitivity, least squares means, Test vs Ref: vs Tetracaine 0.5% (cornea; Compound I 2.5% (N=11) vs Tetracaine 0.5% (N=12) at 2.5 and 10 minutes post-dose): statistical and clinical significance were observed | Difference in corneal sensitivity vs vehicle (cornea; compound I 2.5%, time points up to 30 minutes post-dose): No difference | Anesthetic effect on the cornea (esthesiometry) (cornea; compound I 2.5%): no anesthetic effect at any time point | Anesthetic effect on the cornea (esthesiometry) (cornea; compound I 2.5%, listed as compound I): lack of anesthetic effect
